{"source": "PubChem BioAssay AID1963835", "about": "(Molecular Pharmacology Branch, DTP, NCI, 2024);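 note: spheroids exposed to agents for 7 days before viability reading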;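 for viability, T/C: percent of DMSO vehicle control viability so 100% = vehicle and 0% = no viable signal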", "test_system": "699152-130-R-J1-PDC complex spheroid viability", "test": "Anticancer human tumor 699152-130-R-J1-PDC patient-derived pancreatic carcinoma cell line growth inhibition [POLQ]", "settings": "for IC50: curve of first compound; for viability, T/C: stronger effect = lower value", "in_short": "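Patient-derived tumour cells were co-cultured with HUVEC and mesenchymal stem cells as multicellular spheroids at 37 °C. They were treated with POLQ inhibitors (novobiocin, ART-558, RP6685) alone or combined with other agents. Top concentrations were at or near clinical Cmax (otherwise 10 microM; SN-38 at 1 microM), decreasing in half-log steps.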", "key": {"[1]": {"settings": "second compound 0.0316 µM, first compound 0.0316 µM"}, "[2]": {"settings": "second compound 0.0316 µM, first compound 0.1 µM"}, "[3]": {"settings": "second compound 0.0316 µM, first compound 0.316 µM"}, "[4]": {"settings": "second compound 0.0316 µM, first compound 1 µM"}, "[5]": {"settings": "second compound 0.0316 µM, first compound 3.16 µM"}, "[6]": {"settings": "second compound 0.0316 µM, first compound 10 µM"}, "[7]": {"settings": "second compound 0.1 µM, first compound 0.0316 µM"}, "[8]": {"settings": "second compound 0.1 µM, first compound 0.1 µM"}, "[9]": {"settings": "second compound 0.1 µM, first compound 0.316 µM"}, "[10]": {"settings": "second compound 0.1 µM, first compound 1 µM"}, "[11]": {"settings": "second compound 0.1 µM, first compound 3.16 µM"}, "[12]": {"settings": "second compound 0.1 µM, first compound 10 µM"}, "[13]": {"settings": "second compound 0.316 µM, first compound 0.0316 µM"}, "[14]": {"settings": "second compound 0.316 µM, first compound 0.1 µM"}, "[15]": {"settings": "second compound 0.316 µM, first compound 0.316 µM"}, "[16]": {"settings": "second compound 0.316 µM, first compound 1 µM"}, "[17]": {"settings": "second compound 0.316 µM, first compound 3.16 µM"}, "[18]": {"settings": "second compound 0.316 µM, first compound 10 µM"}, "[19]": {"settings": "second compound 1 µM, first compound 0.0316 µM"}, "[20]": {"settings": "second compound 1 µM, first compound 0.1 µM"}, "[21]": {"settings": "second compound 1 µM, first compound 0.316 µM"}, "[22]": {"settings": "second compound 1 µM, first compound 1 µM"}, "[23]": {"settings": "second compound 1 µM, first compound 3.16 µM"}, "[24]": {"settings": "second compound 1 µM, first compound 10 µM"}, "[25]": {"settings": "second compound 3.16 µM, first compound 0.0316 µM"}, "[26]": {"settings": "second compound 3.16 µM, first compound 0.1 µM"}, "[27]": {"settings": "second compound 3.16 µM, first compound 0.316 µM"}, "[28]": {"settings": "second compound 3.16 µM, first compound 1 µM"}, "[29]": {"settings": "second compound 3.16 µM, first compound 3.16 µM"}, "[30]": {"settings": "second compound 3.16 µM, first compound 10 µM"}, "[31]": {"settings": "second compound 10 µM, first compound 0.0316 µM"}, "[32]": {"settings": "second compound 10 µM, first compound 0.1 µM"}, "[33]": {"settings": "second compound 10 µM, first compound 0.316 µM"}, "[34]": {"settings": "second compound 10 µM, first compound 1 µM"}, "[35]": {"settings": "second compound 10 µM, first compound 3.16 µM"}, "[36]": {"settings": "second compound 10 µM, first compound 10 µM"}}}
{"smiles": "CCc1cc2c(N3CCc4c(cc(Cn5ccnc5)cc4-c4cn(C)nc4C(F)(F)F)C3=O)ccnc2c(OC)n1", "note": "+ Nc1ccc(C#CCN(C(=O)Cc2ncc(C(F)(F)F)cc2C(F)(F)F)c2ccc(F)cc2)nn1", "values": [{"measurement": "IC50", "setting": "second compound 0.0316 µM", "value": "> 10", "unit": "µM"}, {"measurement": "IC50", "setting": "second compound 0.1 µM", "value": "> 10", "unit": "µM"}, {"measurement": "IC50", "setting": "second compound 0.316 µM", "value": "> 10", "unit": "µM"}, {"measurement": "IC50", "setting": "second compound 1 µM", "value": "> 10", "unit": "µM"}, {"measurement": "IC50", "setting": "second compound 3.16 µM", "value": "> 10", "unit": "µM"}, {"measurement": "IC50", "setting": "second compound 10 µM", "value": "> 10", "unit": "µM"}, {"measurement": "viability, T/C", "setting": "[1]", "value": 93.3, "unit": "%"}, {"measurement": "viability, T/C", "setting": "[2]", "value": 87.5, "unit": "%"}, {"measurement": "viability, T/C", "setting": "[3]", "value": 91.8, "unit": "%"}, {"measurement": "viability, T/C", "setting": "[4]", "value": 89.9, "unit": "%"}, {"measurement": "viability, T/C", "setting": "[5]", "value": 102, "unit": "%"}, {"measurement": "viability, T/C", "setting": "[6]", "value": 99.6, "unit": "%"}, {"measurement": "viability, T/C", "setting": "[7]", "value": 88.4, "unit": "%"}, {"measurement": "viability, T/C", "setting": "[8]", "value": 90, "unit": "%"}, {"measurement": "viability, T/C", "setting": "[9]", "value": 89.4, "unit": "%"}, {"measurement": "viability, T/C", "setting": "[10]", "value": 98, "unit": "%"}, {"measurement": "viability, T/C", "setting": "[11]", "value": 101, "unit": "%"}, {"measurement": "viability, T/C", "setting": "[12]", "value": 100, "unit": "%"}, {"measurement": "viability, T/C", "setting": "[13]", "value": 86.2, "unit": "%"}, {"measurement": "viability, T/C", "setting": "[14]", "value": 93.5, "unit": "%"}, {"measurement": "viability, T/C", "setting": "[15]", "value": 93.6, "unit": "%"}, {"measurement": "viability, T/C", "setting": "[16]", "value": 95.4, "unit": "%"}, {"measurement": "viability, T/C", "setting": "[17]", "value": 106, "unit": "%"}, {"measurement": "viability, T/C", "setting": "[18]", "value": 99.1, "unit": "%"}, {"measurement": "viability, T/C", "setting": "[19]", "value": 92.5, "unit": "%"}, {"measurement": "viability, T/C", "setting": "[20]", "value": 91.2, "unit": "%"}, {"measurement": "viability, T/C", "setting": "[21]", "value": 107, "unit": "%"}, {"measurement": "viability, T/C", "setting": "[22]", "value": 94.7, "unit": "%"}, {"measurement": "viability, T/C", "setting": "[23]", "value": 106, "unit": "%"}, {"measurement": "viability, T/C", "setting": "[24]", "value": 98.8, "unit": "%"}, {"measurement": "viability, T/C", "setting": "[25]", "value": 88, "unit": "%"}, {"measurement": "viability, T/C", "setting": "[26]", "value": 88.5, "unit": "%"}, {"measurement": "viability, T/C", "setting": "[27]", "value": 96.4, "unit": "%"}, {"measurement": "viability, T/C", "setting": "[28]", "value": 102, "unit": "%"}, {"measurement": "viability, T/C", "setting": "[29]", "value": 107, "unit": "%"}, {"measurement": "viability, T/C", "setting": "[30]", "value": 104, "unit": "%"}, {"measurement": "viability, T/C", "setting": "[31]", "value": 101, "unit": "%"}, {"measurement": "viability, T/C", "setting": "[32]", "value": 102, "unit": "%"}, {"measurement": "viability, T/C", "setting": "[33]", "value": 111, "unit": "%"}, {"measurement": "viability, T/C", "setting": "[34]", "value": 111, "unit": "%"}, {"measurement": "viability, T/C", "setting": "[35]", "value": 109, "unit": "%"}, {"measurement": "viability, T/C", "setting": "[36]", "value": 110, "unit": "%"}]}
{"smiles": "CC1COCCN1c1cc(C2(S(C)(=N)=O)CC2)nc(-c2ccnc3[nH]ccc23)n1", "note": "(centres undefined) + Cc1cccc(N(C)C(=O)C2C(O)CCN2c2nc(C)cc(C(F)(F)F)c2C#N)c1", "values": [{"measurement": "IC50", "setting": "second compound 0.0316 µM", "value": "> 10", "unit": "µM"}, {"measurement": "IC50", "setting": "second compound 0.1 µM", "value": "> 10", "unit": "µM"}, {"measurement": "IC50", "setting": "second compound 0.316 µM", "value": "> 10", "unit": "µM"}, {"measurement": "IC50", "setting": "second compound 1 µM", "value": "> 10", "unit": "µM"}, {"measurement": "IC50", "setting": "second compound 3.16 µM", "value": "> 10", "unit": "µM"}, {"measurement": "IC50", "setting": "second compound 10 µM", "value": "> 10", "unit": "µM"}, {"measurement": "viability, T/C", "setting": "[1]", "value": 102, "unit": "%"}, {"measurement": "viability, T/C", "setting": "[2]", "value": 95.6, "unit": "%"}, {"measurement": "viability, T/C", "setting": "[3]", "value": 90.2, "unit": "%"}, {"measurement": "viability, T/C", "setting": "[4]", "value": 99.9, "unit": "%"}, {"measurement": "viability, T/C", "setting": "[5]", "value": 81.4, "unit": "%"}, {"measurement": "viability, T/C", "setting": "[6]", "value": 64, "unit": "%"}, {"measurement": "viability, T/C", "setting": "[7]", "value": 99.8, "unit": "%"}, {"measurement": "viability, T/C", "setting": "[8]", "value": 110, "unit": "%"}, {"measurement": "viability, T/C", "setting": "[9]", "value": 89.5, "unit": "%"}, {"measurement": "viability, T/C", "setting": "[10]", "value": 92.8, "unit": "%"}, {"measurement": "viability, T/C", "setting": "[11]", "value": 75.2, "unit": "%"}, {"measurement": "viability, T/C", "setting": "[12]", "value": 73.7, "unit": "%"}, {"measurement": "viability, T/C", "setting": "[13]", "value": 110, "unit": "%"}, {"measurement": "viability, T/C", "setting": "[14]", "value": 91.7, "unit": "%"}, {"measurement": "viability, T/C", "setting": "[15]", "value": 102, "unit": "%"}, {"measurement": "viability, T/C", "setting": "[16]", "value": 83.5, "unit": "%"}, {"measurement": "viability, T/C", "setting": "[17]", "value": 76.5, "unit": "%"}, {"measurement": "viability, T/C", "setting": "[18]", "value": 68.8, "unit": "%"}, {"measurement": "viability, T/C", "setting": "[19]", "value": 107, "unit": "%"}, {"measurement": "viability, T/C", "setting": "[20]", "value": 97.8, "unit": "%"}, {"measurement": "viability, T/C", "setting": "[21]", "value": 97.5, "unit": "%"}, {"measurement": "viability, T/C", "setting": "[22]", "value": 81.7, "unit": "%"}, {"measurement": "viability, T/C", "setting": "[23]", "value": 80.2, "unit": "%"}, {"measurement": "viability, T/C", "setting": "[24]", "value": 67.8, "unit": "%"}, {"measurement": "viability, T/C", "setting": "[25]", "value": 102, "unit": "%"}, {"measurement": "viability, T/C", "setting": "[26]", "value": 97.9, "unit": "%"}, {"measurement": "viability, T/C", "setting": "[27]", "value": 99, "unit": "%"}, {"measurement": "viability, T/C", "setting": "[28]", "value": 96.3, "unit": "%"}, {"measurement": "viability, T/C", "setting": "[29]", "value": 77.5, "unit": "%"}, {"measurement": "viability, T/C", "setting": "[30]", "value": 70.8, "unit": "%"}, {"measurement": "viability, T/C", "setting": "[31]", "value": 104, "unit": "%"}, {"measurement": "viability, T/C", "setting": "[32]", "value": 110, "unit": "%"}, {"measurement": "viability, T/C", "setting": "[33]", "value": 103, "unit": "%"}, {"measurement": "viability, T/C", "setting": "[34]", "value": 85.8, "unit": "%"}, {"measurement": "viability, T/C", "setting": "[35]", "value": 95.1, "unit": "%"}, {"measurement": "viability, T/C", "setting": "[36]", "value": 69.8, "unit": "%"}]}
